Test results: patent US6376478B1, “Pharmaceutical compositions and methods for treating anxiety, anxiety disorders and memory impairment using naaladase inhibitors” (Guilford Pharmaceuticals Inc., priority 1999, dated 2002)
Several values for one entry are separate records, joined by “and”; a condition that tells them apart may be missing. Equal entries are not always repeated.

Tests used:
[1] = Passive avoidance anxiolytic model (shuttlebox, latency to cross); format: in vivo; settings: for anxiolytic properties in passive avoidance / performance compared with flurazepam in passive avoidance: Example 14; for performance compared with flurazepam in passive avoidance: in some experiments; for Latency to Cross, Mean / Latency to Cross, individual animals: Table II
Source text: The passive avoidance test consists of an acquisition and a retention trial. On the day prior to dosing, the animal is placed into the shuttlebox and allowed to acclimate. A conditioned stimulus (light) is presented for approximately 100 seconds. When the animal crosses to the dark compartment, a mild (0.5 mA) footshock is presented until the animal returns to the lighted compartment or for approximately 10 seconds. Animals failing to cross during acquisition trial is randomly replaced. The day following acquisition, animals are administered test article, saline or flurazepam 10 minutes prior to being placed in the shuttlebox and tested for retention as described above. Latency to cross (in seconds) is recorded.

NAALADase = NAALADase (Homo sapiens, UniProt Q04609); test: In vitro inhibition of NAALADase activity; format: biochemical
Chain of NAALADase (Q04609 whole entry): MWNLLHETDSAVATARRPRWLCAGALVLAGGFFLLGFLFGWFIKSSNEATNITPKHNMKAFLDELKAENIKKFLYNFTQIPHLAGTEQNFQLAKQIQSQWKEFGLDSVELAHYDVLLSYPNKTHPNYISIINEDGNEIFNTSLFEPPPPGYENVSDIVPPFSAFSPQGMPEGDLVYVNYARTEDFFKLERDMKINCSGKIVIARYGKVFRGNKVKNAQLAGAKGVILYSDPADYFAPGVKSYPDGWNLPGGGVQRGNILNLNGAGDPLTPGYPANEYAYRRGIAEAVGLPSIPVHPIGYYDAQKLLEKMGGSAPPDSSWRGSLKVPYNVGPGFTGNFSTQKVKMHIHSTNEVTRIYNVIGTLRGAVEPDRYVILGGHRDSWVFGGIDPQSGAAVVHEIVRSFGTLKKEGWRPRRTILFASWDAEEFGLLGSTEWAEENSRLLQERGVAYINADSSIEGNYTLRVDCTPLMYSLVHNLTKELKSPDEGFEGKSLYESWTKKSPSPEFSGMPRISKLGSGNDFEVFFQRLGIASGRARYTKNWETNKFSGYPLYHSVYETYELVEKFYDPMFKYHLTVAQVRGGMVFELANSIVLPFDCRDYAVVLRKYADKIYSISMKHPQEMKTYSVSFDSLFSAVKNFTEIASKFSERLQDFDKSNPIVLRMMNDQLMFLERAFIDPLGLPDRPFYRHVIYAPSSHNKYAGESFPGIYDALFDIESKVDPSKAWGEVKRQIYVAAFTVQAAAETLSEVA

SMILES	anxiolytic properties in passive avoidance [1]	performance compared with flurazepam in passive avoidance [1]	Latency to Cross, Mean ([1]; Compound 1 1 mg/kg PO)	Latency to Cross, individual animals ([1]; Compound 1 1 mg/kg PO, 1 mg/kg)	Latency to Cross, Mean ([1]; Compound 1 10 mg/kg PO)	Latency to Cross, individual animals ([1]; Compound 1 10 mg/kg PO, 10 mg/kg)	Latency to Cross, Mean ([1]; Compound 1 100 mg/kg PO)	Latency to Cross, individual animals ([1]; Compound 1 100 mg/kg PO, 100 mg/kg)	Ki (NAALADase)	Latency to Cross, Retention Trial, MEAN ([1]; Compound 3 100 mg/kg IP)	Latency to Cross, Acquisition Trial, MEAN ([1]; Compound 3 100 mg/kg IP group, day prior to dosing)	Latency to Cross, Acquisition Trial, individual animals ([1]; Compound 3 100 mg/kg IP group, day prior to dosing, 100 mg/kg)	Latency to Cross, Retention Trial, individual animals ([1]; Compound 3 100 mg/kg IP, stimulus about 100 seconds, 100 mg/kg)
O=C(O)CCC(CCS)C(=O)O (stereo not drawn) [Compound 1, 2-(2-sulfanylethyl)pentanedioic acid]	exhibit anxiolytic properties	performed better than the known anxiolytic agent, flurazepam	34.8 s	5.9 seconds and 15.8 seconds and 28.4 seconds and 30.3 seconds and 100.0 seconds (3×) and 12.3 seconds and 27.9 seconds and 23.5 seconds and 3.9 seconds and 13.1 seconds and 0.2 seconds and 41.3 seconds and 20.1 seconds	23.6 s	1.8 s and 28.5 s and 64.1 s and 3.2 s and 14.7 s and 10.3 s and 3.3 s and 24.6 s and 9.4 s and 100.0 s and 22.7 s and 6.6 s and 14.0 s and 38.8 s and 12.1 s	18.0 s	15.0 s and 19.2 s and 5.6 s and 19.3 s and 6.2 s and 55.7 s and 25.5 s and 21.5 s and 6.6 s and 15.1 s and 8.4 s and 17.4 s and 0.5 s and 0.7 s and 52.8 s	510 nM				
O=C(O)CCC(CP(=O)(O)O)C(=O)O (stereo not drawn) [Compound 3, 2-(phosphonomethyl)pentanedioic acid]	exhibit anxiolytic properties	performed better than the known anxiolytic agent, flurazepam								43.0 s	7.8 s	11.8 s and 11.5 s and 9.2 s and 0.8 s and 0.6 s and 2.9 s and 18.6 s and 9.3 s and 0.2 s and 2.0 s and 5.9 s and 6.1 s and 25.0 s and 2.2 s and 10.5 s	100.0 seconds (4×) and 4.6 seconds and 9.9 seconds and 47.4 seconds and 12.9 seconds and 20.6 seconds and 6.6 seconds and 33.0 seconds and 89.8 seconds and 5.2 seconds and 5.9 seconds and 8.5 seconds
